Test results as given in article PMC10304650 (Journal of medicinal chemistry, 2023).

Assays:
[1] = test system: bladder cancer cell lines; experiment: Cell proliferation, CellTiter-Glo, 72 hours; assay type: cell-based, human; settings: three bladder cancer cell lines
[2] = test system: phosphorylation of 4E-BP1 in T24 cells; experiment: Phosphorylation of 4E-BP1 by western blot; assay type: cell-based, human; settings: 1 μM, 24h
97 kinases = experiment: KINOMEscan profiling; assay type: binding; settings: 97 kinases examined
other CK1 isoforms = experiment: Specificity among CK1 isoforms; assay type: biochemical

SMILES | Antiproliferative potency, EC50 [1] | Inhibition of phosphorylation of T37/46, S65 and T70 of 4E-BP1 [2] | KINOMEscan binding affinity (97 kinases) | Inhibition of other CK1 isoforms (other CK1 isoforms)
Fc1ccc2[nH]c(CNc3nc(N4CCOCC4)nc4c3ncn4-c3ccc4ccccc4c3)nc2c1F [SR-4133, N-((4,5-difluoro-1H-benzo[d]imidazol-2-yl)methyl)-2-morpholino-9-(naphthalen-2-yl)-9Hpurin-6-amine] | high nanomolar | blocks the phosphorylation | weak binding affinity only to CK1δ, PDGFRB, and TRKA | do not inhibit
COc1ccc(-n2cnc3c(NCc4nc5c(F)c(F)ccc5[nH]4)nc(N4CCOCC4)nc32)cc1 [SR-4310, N-((6,7-difluoro-1H-benzo[d]imidazol-2-yl)methyl)-9-(4-methoxyphenyl)-2-morpholino-9H-purin-6-amine] | nanomolar |  |  | do not inhibit
